Results from patent US6833364B1, “Substituted pyrazole derivatives” (Bayer HealthCare AG, priority 1998, dated 2004).
Values belong to the compound of their own block, whether it stands above or below them.

Key:
anaesthetized rats = experiment: Blood pressure measurements in anaesthetized rats; format: in vivo; conditions: anaesthetized male Wistar rats
Description: Blood Pressure Measurements in Anaesthetized Rats
Male Wistar rats having a bodyweight of 300-350 g are anaesthetized with Thiopental (100 mg/kg i.p.). After tracheotomy, a catheter is inserted into the femoral artery for blood pressure measurement. The substances to be tested are administered orally in Transcutol, Cremophor EL, H2O (10%/20%/70%) in a volume of 1 ml/kg.

awake rabbits = experiment: Erection-promoting action of guanylate cyclase stimulators in awake rabbits; format: in vivo, chinchilla rabbits; conditions: for Erection-promoting effect, +SNP i.v.: with sodium nitroprusside 0.2 mg/kg i.v. simultaneously; for Erection-promoting effect, +SNP po: sodium nitroprusside 0.2 mg/kg i.v. 30 min later
Text: For a complete and lasting erection to occur, the cavernous arteries and the entire cavernous body architecture, which is formed by a network of smooth muscle cells and collagen connective tissue, has to be at maximum dilation so that the corpus cavernosum can fill completely with blood (Anderson K.-E. and Wagner G., “Physiology of Penile Erection.”. Physiological Reviews 75, 191-236 (1995); Meinhardt W. Kropmann R F, Vermeig P, Lycclama a Nigelholt and Zwartendijk J. “The Influence of Medication on Erectile dysfunction.” Int. J. of Impotence Res. 9, 17-26 (1997). Relaxation of smooth muscles is mediated by NO which, in the case of sexual stimulation, is released by non-adrenergic, non-cholinergic nerve fibres in the endothelial cells of the blood vessels of the corpus cavernosum. NO activates guanylate cyclase, and the resulting increase in cGMP leads to dilation of the smooth muscles of the corpus cavernosum and consequently to an erection. To test the efficacy of the substances according to the invention, awake rabbits were used. The species rabbit was chosen since neurophysiology, haemodynamic and the control of contraction and relaxation of the smooth muscles of the corpus cavernosum of rabbit and man are quite similar (Meyer M F, Taher H., Krah H., Staubesand J., Becker A J, Kircher M, Mayer B., Jonas U., Forsmann W G., Stief Ch.G. “Intracavenous Application of SIN-1 in Rabbit and Man: Functional and Toxcological Results.” Annals Urol. 27, 179-182 (1993); Taub H C, Lerner S E, Melman A, Christ G J “Relationship between contraction and relaxation in human and rabbit corpus cavernosum.” Urology 42, 698-671, (1993).
Adult male chinchilla rabbits having a weight of 3-5 kg are, after delivery, adapted for several days in isolation. They have free access to water and can feed for two hours per day. The animals are kept in a 10/14 hour day/night rhythm (light switched on from 8.00 hours onwards). The room temperature is 22-24° C.
The animals are weighed directly before the start of the experiment. For intravenous administration, the substances according to the invention were dissolved in a mixture of Transcutol (GATTEFOSSE GmbH ) diluted with 20% Cremophor (BASF) and water in a ratio of 3/7. Sodium nitroprusside was dissolved in 0.9% NaCl. The substances were injected at the dosages stated in the table in a volume of 0.5 ml/kg into the auricular vein. For oral administration, the test substances were dissolved in a mixture of glycerol: water: polyethylene glycol 6:10:9.69 and administered at the dosages stated in the table in a volume of 1 ml/kg using the stomach tube.
The effect of guanylate cyclase stimulators is increased by NO donors.
The sodium nitroprusside was injected into the auricular vein at a dosage of 0.2 mg/kg simultaneously with the substance according to the invention. If the substance according to the invention was administered orally, the sodium nitroprusside was injected into the auricular vein of these animals 30 min after the oral administration. Corresponding controls were carried out using the solvent and using sodium nitroprusside on its own.
At rest, the penis of the rabbit is not visible in the pubic region and is covered completely by the sheath. The erection is assessed by measuring the length of the protruding penis with a calliper square. Measurements are carried out 5, 10, 15, 30, 45, 60, 120 and 180 min. after the administration of the substance. The effect is calculated as the product of the length of the penis which is not covered by fur in [mm] and the time for which the erection persists in [min].
The substances were administered in the dosages stated. The sodium nitroprusside was in each case administered i.v., at 0.2 mg/kg. If the substance according to the invention was administered i.v., the sodium nitroprusside was administered simultaneously, if the substance according to the invention was administered orally, it was administered 30 min later. […]

rabbit aortal rings = experiment: Vasorelaxant action in vitro, aortal rings contracted with phenylephrine; conditions: Oryctolagus cuniculus; rabbit aorta rings, phenylephrine contraction; read-out: IC50 (concentration reducing height of phenylephrine contraction by 50%)
Description: Vasorelaxant Action in vitro
Rabbits are anaesthetized by a blow to the neck and exanguinated. The aorta is removed, freed from adhering tissue, divided into 1.5 mm wide rings and individually transferred under a pretension into 5 ml organ baths containing a warm, carbogen-aerated Krebs-Henseleit solution at 37° C. of the following composition (mM): NaCl: 119; KCl: 4.8; CaCl2×2 H2O: 1; MgSO4×7 H2O; 1.4; KH2PO4: 1.2; NaHCO3: 25; glucose: 10. The contractility is detected using Statham UC2 cells, amplified and digitalized by means of A/D converters (DAS-1802 HC, Keithley Instruments Munich), and recorded in parallel on linear recorders. To produce a contraction, phenylephrin is added to the bath cumulatively in increasing concentration. After several control cycles, the substance to be investigated is investigated in each further passage in increasing dosage in each case, and the height of the contraction is compared with the height of the contraction achieved in the last preliminary passage. From this, the concentration which is necessary in order to reduce the height of the control value by 50% (IC50) is calculated. The standard administration volume is 5 μl, and the proportion of DMSO in the bath solution corresponds to 0.1%.

[1] = system: soluble guanylate cyclase; experiment: Stimulation of soluble guanylate cyclase in primary endothelial cells (intracellular cGMP); format: cell-based; conditions: pig aortic primary endothelial cells, 10 min
Description: Stimulation of Soluble Guanylate Cyclase in Primary Endothelial Cells
Primary endothelial cells were isolated from pig aortas by treatment with collagenase soln. The cells were then cultured in culture medium at 37 °C./5% CO2 until confluence was reached. For the investigations, the cells were passaged, inoculated into 24-well cell culture plates and subcultured until reaching confluence (˜2×10^5 cells/well). For the stimulation of endothelial guanylate cyclase, the culture medium was aspirated and the cells were washed once with Ringer solution. After removing the Ringer solution, the cells were incubated for 10 minutes, at 37° C./5% CO2 in stimulation buffer. […] After a further 10 minutes the buffer solution was aspirated and cold buffer at 4° C. was added to the cells. The cells were then lysed at −20° C. for 16 hours. The supernatants containing the intracellular cGMP were then removed and the cGMP concentration was determined by means of the cGMP-SPA system (Amersham Buchler, Brunswick).

[2] = system: human platelets stimulated with collagen; experiment: Inhibition of platelet aggregation in vitro (collagen-induced); format: cell-based; conditions: 10 min, washed human platelets, 10 min incubation at 37° C.
Description: To determine the cardiovascular action, the following investigations were carried out: In in vitro investigations on the isolated enzyme and on cells of vascular origin, the effect on guanylate cyclase-dependent cGMP formation was tested with and without NO donor. The anti-aggregatory properties were shown on human platelets stimulated with collagen. The vasorelaxant action was determined in rabbit aortal rings preconcentrated with phenylephrine. The hypotensive action was investigated in anaesthetized and awake rats.
To determine the platelet-aggregation, blood from healthy volunteers of both sexes was used. As an anticoagulant, 9 parts of blood were admixed to one part of 3.8% strength sodium citrate solution. The blood was centrifuged at 900 rpm for 20 min. The pH of the platelet-rich plasma obtained was adjusted to pH 6.5 using ACD solution (sodium citrate/citric acid/glucose). The platelets were subsequently centrifuged off and resuspended in buffer and once more centrifuged off. The platelet pellet was suspended in buffer and mixed with an additional 2 mmol/l of CaCl2.
To measure the aggregation, aliquots of the platelet suspension were incubated with the substance to tested at 37° C. for 10 min.

IC50 (rabbit aortal rings): 200 nM | IC50 [2]: 3 nM
SMILES: Nc1nc(-c2nn(Cc3ccccc3F)c3ncccc23)ncc1C1CC1 [Example 1, 3-(4-Amino-5-cyclopropylpyrimidin-2-yl)-1-(2-fluorobenzyl)-1H-pyrazolo[3,4-b]pyridine]
Max. reduction in blood pressure (anaesthetized rats; 1 mg/kg p.o.): 23 mm Hg | Time (of max. reduction in blood pressure) (anaesthetized rats; 1 mg/kg p.o.): 20 min | Max. reduction in blood pressure (anaesthetized rats; 3 mg/kg p.o.): 37 mm Hg | Time (of max. reduction in blood pressure) (anaesthetized rats; 3 mg/kg p.o.): 40 min | Erection-promoting effect, +SNP i.v. (awake rabbits; 0.3 mg/kg i.v.): 140 [mm] × [min] | Erection-promoting effect, +SNP i.v. (awake rabbits; 1 mg/kg i.v.): 369 [mm] × [min] | Erection-promoting effect, +SNP po (awake rabbits; 1 mg/kg po): 184 [mm] × [min] | Erection-promoting effect, +SNP po (awake rabbits; 3 mg/kg po): 233 [mm] × [min] | Erection-promoting effect, +SNP po (awake rabbits; 10 mg/kg po): 375 [mm] × [min] | Erection-promoting effect, +SNP po (awake rabbits; 30 mg/kg po): 804 [mm] × [min] | Erection-promoting effect, −SNP po (awake rabbits; 30 mg/kg po, without sodium nitroprusside): 418 [mm] × [min] | cGMP ([1]; concentration 0.1 μM): 2.2 pmol/well | cGMP ([1]; concentration 0.3 μM): 4.0 pmol/well | cGMP ([1]; concentration 1.0 μM): 6.9 pmol/well | cGMP ([1]; concentration 3.0 μM): 8.5 pmol/well | cGMP ([1]; concentration 10 μM): 14.6 pmol/well

melting point: 214 °C
SMILES: Nc1nc(-c2nn(Cc3ccccc3F)c3ncccc23)ncc1C1CCC1 [Example 2, 3-(4-Amino-5-cyclobutylpyrimidin-2-yl)-1-(2-fluorobenzyl)-1H-pyrazolo[3,4-b]pyridine]

melting point: 208 °C
SMILES: Nc1nc(-c2nn(Cc3ccccc3F)c3ncccc23)ncc1C1CCCC1 [Example 3, 3-(4-Amino-5-cyclopentylpyrimidin-2-yl)-1-(2-fluorobenzyl)-1H-pyrazolo[3,4-b]pyridine]

melting point: 213 °C
SMILES: Nc1nc(-c2nn(Cc3ccccc3F)c3ncccc23)ncc1C1CCCCC1 [Example 4, 3(4-Amino-5-cyclohexylpyrimidin-2-yl)-1-(2-fluorobenzyl)-1H-pyrazolo[3,4-b]pyridine]
